These results are taken from article PMC12569658, “An Orally Administered Misuse Deterrent Opioid Prodrug for Treatment of Acute Pain” (JACS Au, 2025).

The term Km denotes the concentration of substrate that gives half-maximal velocity.

For test [1], the system named is C57BL/6J mice. As to conditions: IP injection of oxycodone; ref previous reports (reference numbers not printed); cited from earlier work. The text has this:
To confirm that this analgesic effect was due to enzymatic degradation of the prodrug in the digestive system, the antinociceptive effects of prodrug 20 were examined following systemic intraperitoneal (IP) injection.

In test [2] the test system is chymotrypsin and trypsin. The experiment in a line: Michaelis-Menten kinetics of pNP release in the presence of both chymotrypsin and trypsin. Format: biochemical. As to conditions: for Km / VMax / kCat/KM (substrate specificity): chymotrypsin and trypsin 0.02 mM each, substrate 0.1-2.0 mM, 35 mM HEPES pH 7.5, 37 °C, absorbance 405 nm, average of n = 3. The text has this: In order to ensure the prodrug would be cleaved effectively once it was exposed to chymotrypsin and trypsin in concentrations found in the […], we elected to optimize the peptide sequence further, particularly on the ε-amine of the lysine, to enhance the substrate efficiency (Figure B). This would help to ensure that oxycodone is released in the gastrointestinal tract. […] Previous studies have shown that chymotrypsin binding can be enhanced through additional nonbulky amino acid groups following the aromatic residue. ,− Accordingly, substrates 9 and 10, with alanine residues coupled to phenylalanine, were prepared, and their kinetics were examined. […] Coupling a third alanine to the tyrosine residue (12) increased the substrate specificity by around 5-fold compared to 11. Since coupling of alanine residues to the α-amine of 6–8 increased the percentage of pNP release (Figure A), 13 with a single alanine on the N-terminus was prepared. Compared to substrate 11 with no N-terminal alanine, there was a minimal effect on the K M, but the V Max was reduced by half, leading to a lower k Cat/K M. Since 12 had the highest k Cat/K M and the fastest V Max, we proceeded to use this peptide scaffold for further experiments. […]
(§1) General Procedure – Michaelis-Menten Kinetics […]
(§2) substrate concentration of 2.0, 1.5, 1.0, 0.5, 0.24, and 0.1 mM, maintaining a constant concentration of DMSO across all conditions. These solutions were then combined with chymotrypsin and trypsin to afford a final concentration of 0.02 mM for each enzyme. Immediately upon addition of the proteases, the 96-well plate was inserted into the plate reader and the absorbance at 405 nm was monitored over the course of 4 ho urs with time points taken every 30 seconds. The plate was incubated in the plate reader at 37 °C. All conditions were carried out in triplicate and reported as the average between the three replicates. Michaelis -Menten enzyme kinetic analysis was carried out using GraphPad Prism 8.4.3. Substrate concentrations were adjusted as needed to obtain relevant Michaelis -Menten statistics. Concentrations of substrate are shown in their respective activity plots below.

In test [3] the test system is chymotrypsin and trypsin. The experiment in a line: In vitro simulated digestion (pNP release) assay with trypsin, chymotrypsin or both enzymes. Format: biochemical. As to conditions: substrate 1.5 mM, 35 mM HEPES pH 7.5, 37 °C, n = 3. The procedure: We hypothesized that by protecting the phenol with a tert-butyl ether, chymotrypsin would not recognize the tyrosine derivative prior to passage through the acidic conditions in the stomach where the tert-butyl ether would be removed. This additional security measure removes the ability to pretreat the prodrug with store-bought digestive enzyme supplements to release the opioid.
General Procedure – Release Kinetics
The peptide was dissolved in DMSO and diluted using 35 mM HEPES buffer (pH 7.5) to a final substrate concentration of 1.5 mM, maintaining a constant concentration of DMSO across all conditions. These solutions were then combined with either chymotrypsin, trypsin, or both enzymes to afford a final concentration of 0.02 mM for each enzyme. Immediately upon addition of the proteases, the 96-well plate was inserted into the plate reader and the absorbance at 405 nm was monitored over the course of 4 hours with time points taken every 30 seconds. The plate was incubated in the plate reader at 37 °C.
as §1, §2

The test system of test [4] is C57BL/6J mice. As to the kind of experiment: Hot plate latency after intraperitoneal injection. As to conditions: 30 mg/kg of oxycodone in prodrug, 55 °C hot plate, n = 6, ns vs water. It is filed as in vivo, mouse.
For test [5], the system named is chymotrypsin and trypsin. The experiment in a line: Michaelis-Menten competitive inhibition release assay of 12 with peptide byproduct 19. It is filed as biochemical. As to conditions: 19 at 1.6, 0.8, 0.4 or 0.2 mM; 12 at 0.1-2.0 mM; chymotrypsin and trypsin 0.02 mM each; 35 mM HEPES pH 7.5; n = 3. The text has this: Prior to moving forward with analgesia studies in vivo, it was important to ensure that the AAAY (19) peptide byproduct from chymotrypsin cleavage was not competitively inhibiting the pNP release. This could be an issue in vivo, as the PEPT1 transepithelial transporter in the digestive tract has a very weak binding affinity for tetrapeptides. A lack of transport for 19 could lead to the accumulation and generation of a competitive inhibitor for chymotrypsin, thus reducing the overall amount of opioid released. To examine this hypothesis, Michaelis–Menten competitive inhibition enzyme kinetics were performed with chymotrypsin and trypsin for 12 in the presence of peptide 19. […] These observations enhanced our confidence in using the 12 prodrug scaffold for in vivo analgesia studies.
Competitive Inhibition Release Assay
12 was dissolved in DMSO and diluted using 35 mM HEPES buffer (pH 7.5) to a final substrate concentration of 2.0, 1.5, 1.0, 0.5, 0.24, and 0.1 mM, maintaining a constant concentration of DMSO across all conditions. 19 was added to yield a final concentration of either 1.6, 0.8, 0.4, or 0.2 mM. […] Immediately upon addition of the proteases, the 96 - well plate was inserted into the plate reader and the absorbance at 405 nm was monitored over the course of 4 hours. […]

Test [6] deals with T1, chymotrypsin (Bos taurus, UniProt P00766).
T1 construct: purchased
As to the kind of experiment: pNP release assay in the presence of chymotrypsin only. As to conditions: chymotrypsin only 0.02 mM, substrate 1.5 mM, 35 mM HEPES pH 7.5, 37 °C, absorbance 405 nm, over 4 h. It is filed as biochemical. The text has this: Using the branched lysine peptide sequences modified from our previous work, we began to explore the sequence effects on the efficiency and release rate of a model reporter molecule, p-nitrophenol (pNP). Peptides 6–8 were initially prepared to determine whether the peptide backbone length had any effect on the release of pNP in the presence of chymotrypsin alone (Figure A; see Supporting Information (SI) for synthetic procedures). Chymotrypsin promiscuity (i.e., cleavage of both sites) could lead to less misuse deterrence as only one enzyme could promote the release of the opioid. […] However, substrate 8 reached greater than 90% pNP release within 3 h (Figures A and S15). […]
The peptide was dissolved in DMSO and diluted using 35 mM HEPES buffer (pH 7.5) to a final substrate concentration of 1.5 mM, maintaining a constant concentration of DMSO across all conditions. […] Immediately upon addition of the proteases, the 96-well plate was inserted into the plate reader and the absorbance at 405 nm was monitored over the course of 4 hours with time points taken every 30 seconds. The plate was incubated in the plate reader at 37 °C. […]
substrate concentration of 2.0, 1.5, 1.0, 0.5, 0.24, and 0.1 mM, maintaining a constant concentration of DMSO across all conditions. […] The plate was incubated in the plate reader at 37 °C. […]

`COc1ccc2c3c1O[C@H]1C(=O)CC[C@@]4(O)[C@@H](C2)N(C)CC[C@]314` [oxycodone]: the “analgesic effect after IP injection” value in test [1] is “there is an analgesic effect”.

Consider “Ac-Ala-Lys[Tyr-Ala-Ala]-(2-(pNP-thionocarbamate)methyl)ethylamino trifluoroacetate [compound 13]”, for which, in test [2], the Km turned out to be 4160 µM and the VMax came out at 0.119 µM/s.

Turning to “Ac-Lys[Phe-Ala-Ala]-(2-(pNP-thionocarbamate)methyl)ethylamino trifluoroacetate [compound 10]”, in test [2], the Michaelis constant (Km) is 1970 µM, the VMax is 0.225 µM/s and the “kCat/KM (substrate specificity)” value was 5.73 × 10^–6 μM^-1s^-1.

In the case of “Ac-Lys[Phe-Ala]-(2-(pNP-thionocarbamate)methyl)ethylamino trifluoroacetate [compound 9]”, in test [2], the Michaelis-Menten constant (Km) came out at 1420 µM and the VMax was 0.021 µM/s.

As to “Ac-Lys[Tyr(tBu)-Ala-Ala-Ala]-(2-(pNP-thionocarbamate)methyl)ethylamino trifluoroacetate [compound 14]”, the “pNP release over 150 min” value in test [3] (both chymotrypsin and trypsin 0.02 mM each, absorbance 405 nm, 150 min, no acidic pretreatment) is about 5%.

In the case of “Ac-Lys[Tyr-Ala-Ala-Ala]-(2-(oxycodone-thionocarbamate)methyl)ethylamino ditrifluoroacetate [compound 20]”, the “withdrawal threshold (hot plate) latency after IP injection” value in test [4] was “did not alleviate acute pain”.

For the compound “Ac-Lys[Tyr-Ala-Ala-Ala]-(2-(pNP-thionocarbamate)methyl)ethylamino trifluoroacetate [compound 12]”, the “pNP release at which the simulated digestion assay stagnated” value in test [3] (both chymotrypsin and trypsin 0.02 mM each, absorbance 405 nm, plateau) is reported as about 30%. The “enzyme requirement for pNP release” value in test [3] (trypsin, chymotrypsin, or both enzymes, 0.02 mM each) is reported as “only observed in the presence of both proteolytic enzymes”. Moreover, in test [2], the Michaelis constant (Km) is 2350 µM and the VMax is 0.749 µM/s. Besides, in test [2] (chymotrypsin and trypsin, relative to 11), the “increase of substrate specificity (kCat/KM) compared to 11” value is “around 5 fold”.

Take “Ac-Lys[Tyr-Ala-Ala]-(2-(pNP-thionocarbamate)methyl)ethylamino trifluoroacetate [compound 11]”: in test [2], the Km was found to be 4000 µM and the VMax is 0.276 µM/s.

For “Ala-Ala-Ala-Tyr trifluoroacetate [compound 19]”, the “competitive inhibition of pNP release from 12” value in test [5] is “negligibly affected”.

On to “Ala-Lys[(Ac)Phe]-(2-(pNP-thionocarbamate)methyl)ethylamino trifluoroacetate [compound 7]”, for which the “pNP release over the course of 4 h, chymotrypsin alone” value in test [6] is “less than 15%”. Further, in test [2], the Michaelis-Menten constant (Km) is 941 µM, the VMax is 0.019 µM/s and the “kCat/KM (substrate specificity)” value is given as 9.97 × 10^–7 μM^-1s^-1.
